pIC50: −log10 of the molar value.
Key:
Type in all cases: cell-based
[1] = target: Ba/F3 EGFR-D770-N771ins_SVD (Homo sapiens, UniProt P00533, DUP768-770, cells depend on it); assay: Cell proliferation study (CellTiter-Glo, 72 hrs), Ba/F3 EGFR-D770-N771ins_SVD; details: CTG, * = average of multiple measurements, read-out: Ba/F3 EGFR-D770-N771ins_SVD IC50
Procedure: (§1) (I) Reagents and Materials
(§2) • Fetal bovine serum FBS (GBICO, Cat #10099-141); • CellTiter-Glo® luminescent cell viability assay kit (Promega, Cat #G7572); • Black transparent flat-bottom 96-well plate (Corning®, Cat #3603). (II) Instruments • SpectraMax multi-label microplate reader MD, 2104-0010A; • Carbon dioxide incubator, Thermo Scientific 3100 series; • Biological safety cabinet, Thermo Scientific, 1300 series model A2; • Inverted microscope, Olympus, CKX41SF; • Siemens refrigerator KK25E76T1. (III) Cell Lines and Culture Conditions
(§3) (IV) Experimental Procedures 1. Cell Culture and Inoculation: • (1) Cells in the logarithmic growth phase were harvested and counted using a […]. The cell viability was determined by the trypan blue dye exclusion method to ensure cell viability above 90%. • (2) The cell concentration was adjusted to reach a desired final density; 90 μL of cell suspension was added to a 96-well plate. • (3) The cells were incubated overnight in the 96-well plate at 37° C., 5% CO2 and with 95% humidity. 2. T0 Benchmark Data: • (1) 10 μL of PBS was added to each well of the TO plate containing the cells. • (2) The CTG reagent was thawed and the cell plate was equilibrated to room temperature for 30 min. • (3) An equal volume of CTG solution was added to each well. • (4) The cells were lysed by shaking on an orbital shaker for 5 min. • (5) The cell plate was left to stand at room temperature for 20 min to stabilize the fluorescence signal. • (6) The fluorescence signal values of TO were read. 3. Dilution and Addition of Compounds • (1) According to the compound information table, a corresponding volume of DMSO was added to the corresponding compound powder to prepare a 10 mM stock solution. • (2) A 1000-fold, 3.16-fold-diluted compound solution was prepared. • (3) The 1000× diluted compound solution was diluted 100-fold with PBS to prepare a 10-fold compound solution with a maximum concentration of 10 μM, including 9 concentrations, with 3.16-fold dilution, and 10 μL of the medicament solution was added to each well of the 96-well plate to seed the cells. Triplicate wells were set for each compound concentration, with a final concentration of DMSO being 0.1%. • (4) The cells were placed in the 96-well plate containing the medicament at 37° C., 5% CO2 and with 95% humidity, and cultured for 72 hrs before CTG analysis. 4. Fluorescence Signal Reading • (1) The CTG reagent was thawed and the cell plate was equilibrated to room temperature for 30 min. • (2) An equal volume of CTG solution was added to each well. • (3) The cells were lysed by shaking on an orbital shaker for 5 min. • (4) The cell plate was left to stand at room temperature for 20 min to stabilize the fluorescence signal. • (5) The fluorescence values were read. 5. Data Processing
(§4) Data were analyzed using GraphPad Prism 7.0 software and fitted data were regressed using non-linear S-curves to obtain dose-response curves from which IC50 values (in nM) were calculated.

[2] = target: Ba/F3 EGFR-V769_D770insASV (Homo sapiens, UniProt P00533, DUP767-769, cells depend on it); assay: Cell proliferation study (CellTiter-Glo, 72 hrs), Ba/F3 EGFR-V769_D770insASV; details: CTG, * = average of multiple measurements, read-out: Ba/F3 EGFR-V769_D770insASV IC50
Procedure: as §1, §2, §3, §4

A431 (EGFR-WT) = assay: Cell proliferation study (CellTiter-Glo, 72 hrs), A431; details: Homo sapiens, A-431, A431 cells, CTG, * = average of multiple measurements
Procedure: as §1, §2, §3, §4

Sequence of Ba/F3 EGFR-D770-N771ins_SVD (P00533 with tags, fused parts or gaps DUP768-770): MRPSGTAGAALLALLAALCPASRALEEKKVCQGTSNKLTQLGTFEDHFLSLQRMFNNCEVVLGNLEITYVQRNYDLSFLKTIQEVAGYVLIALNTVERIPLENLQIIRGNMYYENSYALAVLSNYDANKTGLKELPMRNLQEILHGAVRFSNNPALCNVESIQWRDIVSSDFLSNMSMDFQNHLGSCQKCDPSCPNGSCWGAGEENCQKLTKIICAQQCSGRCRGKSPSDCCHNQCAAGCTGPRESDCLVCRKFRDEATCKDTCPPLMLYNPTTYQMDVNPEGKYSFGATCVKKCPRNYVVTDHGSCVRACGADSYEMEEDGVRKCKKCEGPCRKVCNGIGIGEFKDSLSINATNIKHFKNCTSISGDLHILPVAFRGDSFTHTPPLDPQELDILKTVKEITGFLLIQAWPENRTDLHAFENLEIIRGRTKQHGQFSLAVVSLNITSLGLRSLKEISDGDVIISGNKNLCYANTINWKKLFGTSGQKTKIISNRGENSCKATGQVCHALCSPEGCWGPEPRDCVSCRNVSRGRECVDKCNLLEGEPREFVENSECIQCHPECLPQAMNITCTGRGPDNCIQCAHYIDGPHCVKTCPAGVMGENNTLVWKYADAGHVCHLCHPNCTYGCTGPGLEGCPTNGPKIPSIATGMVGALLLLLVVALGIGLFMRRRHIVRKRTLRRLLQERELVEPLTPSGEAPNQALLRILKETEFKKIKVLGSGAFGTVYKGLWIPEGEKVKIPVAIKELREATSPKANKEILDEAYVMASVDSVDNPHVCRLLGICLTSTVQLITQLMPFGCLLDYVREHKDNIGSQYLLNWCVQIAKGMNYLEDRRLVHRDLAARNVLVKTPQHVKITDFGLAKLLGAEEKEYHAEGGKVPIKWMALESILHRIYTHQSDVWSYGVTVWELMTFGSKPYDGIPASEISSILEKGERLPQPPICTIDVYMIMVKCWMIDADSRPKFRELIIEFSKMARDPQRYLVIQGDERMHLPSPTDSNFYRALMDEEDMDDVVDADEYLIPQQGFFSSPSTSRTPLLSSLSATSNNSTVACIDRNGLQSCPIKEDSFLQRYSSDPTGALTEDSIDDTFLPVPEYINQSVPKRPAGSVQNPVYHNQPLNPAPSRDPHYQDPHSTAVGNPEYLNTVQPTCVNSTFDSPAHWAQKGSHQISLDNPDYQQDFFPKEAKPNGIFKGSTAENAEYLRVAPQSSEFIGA
Sequence of Ba/F3 EGFR-V769_D770insASV (P00533 with tags, fused parts or gaps DUP767-769): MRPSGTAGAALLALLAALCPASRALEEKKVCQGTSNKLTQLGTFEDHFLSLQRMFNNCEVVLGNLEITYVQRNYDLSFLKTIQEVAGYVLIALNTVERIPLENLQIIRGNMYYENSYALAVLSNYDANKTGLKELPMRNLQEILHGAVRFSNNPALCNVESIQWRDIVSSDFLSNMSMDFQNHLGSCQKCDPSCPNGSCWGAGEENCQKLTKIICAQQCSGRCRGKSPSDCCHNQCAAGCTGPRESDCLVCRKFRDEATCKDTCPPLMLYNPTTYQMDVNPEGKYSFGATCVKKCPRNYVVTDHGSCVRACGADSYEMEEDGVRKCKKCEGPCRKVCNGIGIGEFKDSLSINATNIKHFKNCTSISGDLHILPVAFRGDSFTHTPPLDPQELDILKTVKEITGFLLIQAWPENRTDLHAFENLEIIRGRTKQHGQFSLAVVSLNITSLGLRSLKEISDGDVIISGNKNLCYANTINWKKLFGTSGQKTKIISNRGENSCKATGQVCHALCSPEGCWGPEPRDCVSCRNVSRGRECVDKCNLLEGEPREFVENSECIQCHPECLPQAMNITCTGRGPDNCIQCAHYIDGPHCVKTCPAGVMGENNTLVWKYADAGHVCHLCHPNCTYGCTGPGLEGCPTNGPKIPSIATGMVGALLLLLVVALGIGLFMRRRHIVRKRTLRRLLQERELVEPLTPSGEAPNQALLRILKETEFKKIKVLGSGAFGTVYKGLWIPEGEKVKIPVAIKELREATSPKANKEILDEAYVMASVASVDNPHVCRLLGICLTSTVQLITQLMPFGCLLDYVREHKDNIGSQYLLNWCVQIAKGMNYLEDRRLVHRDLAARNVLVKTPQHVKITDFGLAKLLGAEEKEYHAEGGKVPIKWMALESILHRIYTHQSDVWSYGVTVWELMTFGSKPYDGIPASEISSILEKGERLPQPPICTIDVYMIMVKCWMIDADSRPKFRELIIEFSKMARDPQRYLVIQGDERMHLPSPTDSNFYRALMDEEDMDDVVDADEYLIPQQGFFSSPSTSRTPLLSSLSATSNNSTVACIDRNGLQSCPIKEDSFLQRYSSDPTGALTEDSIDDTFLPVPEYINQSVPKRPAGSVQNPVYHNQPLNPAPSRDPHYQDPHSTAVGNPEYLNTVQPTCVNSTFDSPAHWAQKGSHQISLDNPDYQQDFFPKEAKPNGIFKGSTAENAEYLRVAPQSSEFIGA

GI50 [1] | GI50 [2] | pIC50 (A431 (EGFR-WT)) | Compound
16.9 nM | 27.2 nM |  | C=CC(=O)Nc1cc(Nc2ncc(C(=O)OC(C)C)c(N3CC(C)(C)c4nc(C)ccc43)n2)c(OC)cc1N(C)CCN1CCCC1 [Example 66, isopropyl 2-((5-acrylamido-2-methoxy-4-(methyl(2-(pyrrolidin-1-yl)ethyl)amino)phenyl)amino)-4-(3,3,5-trimethyl-2,3-dihydro-1H-pyrrolo[3,2-b]pyridin-1-yl)pyrimidine-5-carboxylate]
59.5 nM |  | 6.79 | C=CC(=O)Nc1cc(Nc2ncc(C(=O)OC(C)C)c(N3CC(C)(C)c4nc(C5CC5)ccc43)n2)c(OC)cc1N(C)CCN(C)C [Example 4, isopropyl 2-((5-acrylamido-4-((2-(dimethylami-no)ethyl)(methyl)amino)-2-methoxy-phenyl)amino)-4-(5-cyclopropyl-3,3-dimethyl-2,3-dihydro-1H-pyrrolo[3,2-b]pyridin-1-yl)pyrimidine-5-carboxylate]
36.3 nM |  | 6.67 | C=CC(=O)Nc1cc(Nc2ncc(C(=O)OC(C)C)c(N3CC(C)(C)c4nc(C)ccc43)n2)c(OC)cc1N(C)C[C@@H]1CCCN1C [Example 41, isopropyl (S)-2-((5-acrylamido-2-methoxy-4-(methyl((1-methylpyrrolidin-2-yl)methyl)amino)phenyl)amino)-4-(3,3,5-trimethyl-2,3-dihydro-1H-pyrrolo[3,2-b]pyridin-1-yl)pyrimidine-5-carboxylate]
254 nM |  |  | C=CC(=O)Nc1cc(Nc2ncc(C(=O)OC(C)C)c(N3CC(C)(C)c4nc(C#CC)ccc43)n2)c(OC)cc1N1CCN(C)C(C)C1 (stereo not drawn) [Example 95, isopropyl 2-((5-acrylamido-4-(3,4-dimethyl-piperazin-1-yl)-2-methoxy-phenyl)amino)-4-(3,3-dimethyl-5-(prop-1-yn-1-yl)-2,3-dihydro-1H-pyrrolo[3,2-b]pyridin-1-yl)pyrimidine-5-carboxylate]
14.1 nM |  | 6.24 | [2H]C([2H])([2H])Oc1cc(N(C)CCN(C)C)c(NC(=O)C=C)cc1Nc1ncc(C(=O)OC(C)C)c(N2CC(C)(C)c3nc(C)ccc32)n1 [Example 27, isopropyl 2-((5-acrylamido-4-((2-(dimethylami-no)ethyl)(methyl)amino)-2-(methoxy-d3)phenyl)amino)-4-(3,3,5-trimethyl-2,3-dihydro-1H-pyrrolo[3,2-b]pyridin-1-yl)pyrimidine-5-carboxylate]
204 nM |  |  | C=CC(=O)Nc1cc(Nc2ncc(C(=O)OC(C)C)c(N3CC(C)(C)c4nc(C)ccc43)n2)c(OC(C)C)cc1N(C)CCN(C)C [Example 28, isopropyl 2-((5-acrylamido-4-((2-(dimethylami-no)ethyl)(methyl)amino)-2-isopropoxy-phenyl)amino)-4-(3,3,5-trimethyl-2,3-dihydro-1H-pyrrolo[3,2-b]pyridin-1-yl)pyrimidine-5-carboxylate]
72.9 nM |  |  | C=CC(=O)Nc1cc(Nc2ncc(C(=O)OC(C)C)c(N3CC(C)(C)c4nc(C)ccc43)n2)c(OCC)cc1N(C)CCN(C)C [Example 37, isopropyl 2-((5-acrylamido-4-((2-(dimethylami-no)ethyl)(methyl)amino)-2-ethoxy-phenyl)amino)-4-(3,3,5-trimethyl-2,3-dihydro-1H-pyrrolo[3,2-b]pyridin-1-yl)pyrimidine-5-carboxylate]
309 nM |  |  | C=CC(=O)Nc1cc(Nc2ncc(C(=O)OC(C)C)c(N3CC(C)(C)c4nc(C(C)C)ccc43)n2)c(OC)cc1N(C)CCN(C)C [Example 16, isopropyl 2-((5-acrylamido-4-((2-(dimethylami-no)ethyl)(methyl)amino)-2-methoxy-phenyl)amino)-4-(5-isopropyl-3,3-dimethyl-2,3-dihydro-1H-pyrrolo[3,2-b]pyridin-1-yl)pyrimidine-5-carboxylate]
44.4 nM |  |  | C=CC(=O)Nc1cc(Nc2ncc(C(=O)OC(C)C)c(N3CC(C)(C)c4nc(C)ccc43)n2)c(OC2CC2)cc1N(C)CCN(C)C [Example 32, isopropyl 2-((5-acrylamido-2-cyclopropoxy-4-((2-(dimethylamino)ethyl)(methyl)ami-no)phenyl)amino)-4-(3,3,5-trimethyl-2,3-dihydro-1H-pyrrolo[3,2-b]pyridin-1-yl)pyrimidine-5-carboxylate]
50.8 nM |  |  | C=CC(=O)Nc1cc(Nc2ncc(C(=O)OC(C)C)c(N3CC(C)(C)c4nc(C#CC5CC5)ccc43)n2)c(OC)cc1N(C)CCN(C)C [Example 18, isopropyl 2-((5-acrylamido-4-((2-(dimethylami-no)ethyl)(methyl)amino)-2-methoxy-phenyl)amino)-4-(5-(cyclo-propylethynyl)-3,3-dimethyl-2,3-dihydro-1H-pyrrolo[3,2-b]pyridin-1-yl)pyrimidine-5-carboxylate]
199 nM |  |  | C=CC(=O)Nc1cc(Nc2ncc(C(=O)OC(C)C)c(N3CC4(CC4)c4nc(C)ccc43)n2)c(OC)cc1N1CCC[C@H]1CN(C)C [Example 51, isopropyl (S)-2-((5-acrylamido-4-(2-((dimethyl-amino)methyl)pyrrolidin-1-yl)-2-meth-oxyphenyl)amino)-4-(5′-methyl-spiro(cyclopropane-1,3′-pyrrolo[3,2-b]pyridin)-1′(2′H)-yl)pyrimidine-5-carboxylate]
44.9 nM |  |  | C=CC(=O)Nc1cc(Nc2ncc(C(=O)OC(C)C)c(N3CC(C)(C)c4nc5c(cc43)CCC5)n2)c(OC)cc1N(C)CCN(C)C [Example 80, isopropyl 2-((5-acrylamido-4-((2-(dimethylami-no)ethyl)(methyl)amino)-2-methoxy-phenyl)amino)-4-(3,3-dimethyl-3,5,6,7-tetrahydrocyclopenta[b]pyrrolo[2,3-e]pyridin-1(2H)-yl)pyrimidine-5-carboxylate]
60 nM |  |  | C=CC(=O)Nc1cc(Nc2ncc(C(=O)OC(C)C)c(N3CC(C)(C)c4cc(F)c(F)cc43)n2)c(OC)cc1N1CC[C@@H](N(C)C)C1 [Example 94, isopropyl (R)-2-((5-acrylamido-4-(3-(dimethyl-amino)pyrrolidin-1-yl)-2-methoxy-phenyl)amino)-4-(5,6-difluoro-3,3-dimethylindolin-1-yl)pyrimidine-5-carboxylate]
453 nM |  |  | C=CC(=O)Nc1cc(Nc2ncc(C(=O)OC(C)C)c(N3CC(C)(C)c4nc(C)ccc43)n2)c(OC)nc1N1CCC[C@H]1CN(C)C [Example 43, isopropyl (S)-2-((5-acrylamido-6-(2-((dimethyl-amino)methyl)pyrrolidin-1-yl)-2-meth-oxypyridin-3-yl)amino)-4-(3,3,5-tri-methyl-2,3-dihydro-1H-pyrrolo[3,2-b]pyridin-1-yl)pyrimidine-5-carboxylate]
36 nM |  | 5.97 | C=CC(=O)Nc1cc(Nc2ncc(C(=O)OC(C)C)c(N3CC(C)(C)c4nc(C)ccc43)n2)c(OC)nc1N1CC[C@@H](N(C)C)C1 [Example 35, isopropyl (R)-2-((5-acrylamido-6-(3-(dimethyl-amino)pyrrolidin-1-yl)-2-methoxy-pyridin-3-yl)amino)-4-(3,3,5-trimethyl-2,3-dihydro-1H-pyrrolo[3,2-b]pyridin-1-yl)pyrimidine-5-carboxylate]
501 nM |  |  | C=CC(=O)Nc1cc(Nc2ncc(C(=O)OC(C)C)c(N3CC(C)(C)c4nc(C#CC)ccc43)n2)c(OC)cc1N1CCN(C)CC1 [Example 70, isopropyl 2-((5-acrylamido-2-methoxy-4-(4-methylpiperazin-1-yl)phenyl)amino)-4-(3,3-dimethyl-5-(prop-1-yn-1-yl)-2,3-dihydro-1H-pyrrolo[3,2-b]pyridin-1-yl)pyrimidine-5-carboxylate]

From US12692264B2, “Pyrimidine or pyridine derivative, preparation method therefor, and application thereof in pharmacy” (ABBISKO THERAPEUTICS CO., LTD., priority 2021, dated 2026)
